In article PMC3409115, “Diverse Inhibitor Chemotypes Targeting Trypanosoma cruzi CYP51” (PLoS Neglected Tropical Diseases, 2012):
Read-outs that look alike come from different tables or passages of the source.

Key:
[1] = test system: host cell (skeletal myoblasts, bovine embryo skeletal muscle or C2C12); assay: Host cell toxicity in the cross-validation assay; format: cell-based; conditions: host cells in cross-validation assay, up to 10 µM
Method: (§1) Compound cross-validation in T. cruzi infected skeletal myoblasts (bovine embryo skeletal muscle or C2C12 lineage) was performed according to the protocol adapted from Engel and co-authors. Compounds stored as 10 mM stocks in DMSO were freshly diluted immediately prior to use. […] To prepare plates for the assay, skeletal myoblasts cultured in […] flasks were washed once with phosphate buffered saline (PBS) and then incubated with 0.25% trypsin in PBS for 1–3 minutes for detachment. The trypsin solution was removed and myoblasts were released from the flask bottom. Fresh medium was added and cell concentration was determined using a Neubauer hemocytometer. Myoblasts in 50 µl of culture medium were transferred to the clear-bottom wells of black 96-well plates (Greiner Bio-One, #655090) at a density of 1500 cells/well and infected with 50 µl trypomastigote culture at 7500 parasites/well (1∶5 ratio). The cells were allowed to adhere and spread for 24 h in the incubator before the media was removed and 100 µl of fresh medium containing 0, 0.04, 0.12, 0.37, 1.10, 3.30 or 10 µM of test compound was added to each well, followed by 72 h incubation at 37°C in an atmosphere of 5% CO2. Posaconazole was used as a positive control at the same concentrations as the test compounds. The cells were then fixed by adding 100 µl/well of 8% formaldehyde in PBS, resulting in a 4% working concentration of formaldehyde. To stain the nucleus of the host cell and the nucleus and kinetoplast of parasites, cell membranes were first permeabilized by washing once with 100 µl of 0.1% Triton X-100 in PBS, then treated for 1 h with 0.2 µg/ml of the fluorescent DNA dye, 4,6-diamidino-2-phenylindole (DAPI), followed by one wash with PBS. The fixed plates were kept at 4°C and protected from light until images were acquired.
(§2) Plates were allowed to equilibrate to room temperature and images were acquired by the IN Cell Analyzer 2000 (GE Healthcare) with a 20× objective, 5 fields per well, with 350/50 nm and 460/40 nm fluorescent excitation and emission filters. In the absence of drug cytotoxicity, at least 800 cells were imaged and counted per well. The images were processed and analyzed by IN Cell Analyzer Developer 1.6 software. The size parameters used to segment host and parasite organelles were 125 µm^2 for host nucleus, and 1–2 µm^2 for parasite nucleus/kinetoplast. Since DAPI also strongly stains host heterochromatin regions that display as shapes resembling parasites ( Figure 3 ), particles co-localized to host nuclei were excluded from quantification, while parasite aggregates near the host nucleus were counted as infected cells. Numbers of host cells and intracellular amastigotes were determined based on host cell and parasite nucleus and parasite kinetoplast quantification, providing a measure of growth inhibition during the first 72 h of post-infection treatment compared to untreated controls.
^aToxicity was assessed as the highest percentage of host cell growth inhibition caused by compound treatment. Scores are assigned as 1-<20%; 2-21-30%; 3- 31-40%; 4-41-50% and 5->50% growth inhibition.

[2] = test system: T. cruzi-infected skeletal myoblasts (intracellular amastigotes); assay: Hit cross-validation in T. cruzi-infected mammalian cells (image-based assay); format: cell-based, Trypanosoma cruzi; conditions: read-out: EC50 against T. cruzi parasites in HTS assay used to rank order the hits
Method: Bovine embryo skeletal muscle cells or mouse C2C12 myoblasts (ATCC#CRL-1772) used in the cross-validation assay, were cultivated respectively in RPMI 1640 medium supplemented with 5% horse serum and Dulbecco's Modified Eagle's Medium H-21 containing 4.5 g/l glucose (DMEM H-21) (Cell Culture Facility, UCSF), supplemented with 5% fetal bovine serum (FBS) (Sigma Chemical Co., St. Louis, MO, USA), 25 mM HEPES, 2 mM L-glutamine, 100 U/ml penicillin, 100 µg/ml streptomycin. T. cruzi CAI-72 trypomastigotes were obtained from supernatant of infected cultures 4 to 7 days post-infection. Cultures were maintained at 37°C in an atmosphere of 5% CO2. To harvest parasites, the supernatant of infected cultures containing released trypomastigotes was collected and centrifuged at 600 rpm for 5 min to remove cell debris; the pellet was then discarded and the trypomastigotes remaining in the media were concentrated by spinning the culture tubes at 3300 rpm for 15 minutes. The parasite pellet was re-suspended in 2–5 ml of fresh media. Trypomastigote concentration was determined using a Neubauer hemocytometer.
as §1
as §2, with “cells.” for “cells. Numbers of host cells and intracellular amastigotes were determined based on host cell and parasite nucleus and parasite kinetoplast quantification, providing a measure of growth inhibition during the first 72 h of post-infection treatment compared to untreated controls.”

T. cruzi CYP51 = biological target: T1, T. cruzi CYP51 (Trypanosoma cruzi, UniProt Q7Z1V1); assay: HTS spectral-mode binding screen, type II difference spectra scored 0-5
T1 construct: had the first 21 residues upstream of K22 replaced with the fragment MAKKKKK; His6 (C); made in house
T1 sequence (Q7Z1V1 15-481, looked up, natural form): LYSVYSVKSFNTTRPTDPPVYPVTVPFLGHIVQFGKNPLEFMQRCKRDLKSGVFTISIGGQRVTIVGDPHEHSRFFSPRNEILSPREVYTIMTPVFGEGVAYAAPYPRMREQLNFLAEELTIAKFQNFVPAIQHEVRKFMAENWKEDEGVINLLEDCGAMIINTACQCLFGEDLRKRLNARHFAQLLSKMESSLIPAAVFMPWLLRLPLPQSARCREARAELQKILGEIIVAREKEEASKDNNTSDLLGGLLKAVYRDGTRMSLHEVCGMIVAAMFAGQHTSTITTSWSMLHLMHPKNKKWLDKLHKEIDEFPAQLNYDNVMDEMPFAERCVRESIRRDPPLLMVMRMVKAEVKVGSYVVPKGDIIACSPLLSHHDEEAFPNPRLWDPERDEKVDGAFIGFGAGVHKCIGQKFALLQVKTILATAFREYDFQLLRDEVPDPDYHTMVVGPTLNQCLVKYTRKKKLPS

[3] = T. cruzi-infected myoblasts, 72 h treatment
[4] = Trypanosoma cruzi, Myoblast, 72 h, T. cruzi-infected myoblasts, 72 h treatment
[5] = Trypanosoma cruzi, Myoblast, 72 h
[6] = spectral mode, four serial dilutions 2 µM to 12.5 µM, 2 µM CYP51

| Compound | HTS binding score (T. cruzi CYP51; [6]) | other results |
| --- | --- | --- |
| Cc1ccc(OCCCCCn2ccnc2)cc1C [Compound 4] |  | Toxicity score (highest percentage of host cell growth inhibition) [1]: 3 (3- 31-40%); EC50 [2, 3]: 0.548 µM; EC50 [2, 4]: 0.55 µM |
| CC(C)(C)/C(=C\n1ccnc1)c1ccc(C(F)(F)F)cc1 [Compound 8] |  | Toxicity score (highest percentage of host cell growth inhibition) [1]: 3 (3- 31-40%); EC50 [2, 3]: 0.754 µM; EC50 [2, 4]: 0.75 µM |
| Cc1ccc(/C(=C\n2ccnc2)c2ccccc2)cc1 [Compound 10] |  | Toxicity score (highest percentage of host cell growth inhibition) [1]: 4 (4-41-50%); EC50 [2, 3]: 0.92 µM; EC50 [2, 4]: 0.95 µM |
| CCn1c(C(=O)NCc2cccnc2)cc2oc3ccccc3c21 [Compound 16] |  | Toxicity score (highest percentage of host cell growth inhibition) [1]: 4 (4-41-50%); EC50 [2, 5]: 2.2 µM |
| Cc1ccc(C)c(OCCCCn2ccnc2)c1 [Compound 17] | 4 | EC50 [2, 4]: 2.36 µM |
| O=C(NCCc1ccncc1)Nc1ccc(Cl)c(Cl)c1 [Compound 20] |  | Toxicity score (highest percentage of host cell growth inhibition) [1]: 1 (1-<20%); EC50 [2, 5]: 2.55 µM |
| COc1cccc(/C=C/c2ccncc2)c1OC [Compound 24] | 2 | EC50 [2, 5]: 2.98 µM |
| Brc1ccc(OCCCn2ccnc2)cc1 [Compound 25] |  | Toxicity score (highest percentage of host cell growth inhibition) [1]: 2 (2-21-30%); EC50 [2, 4]: 3.66 µM |
| O=C(Cn1ccnc1)c1ccc(Cl)cc1Cl [Compound 26] | 2 | EC50 [2, 5]: 4.53 µM |
| CCO/C(O)=C1/C(C)=NC2=C(C(=O)CC(c3ccccc3)C2)C1c1cccnc1 (stereo not shown) [Compound 28] |  | HTS binding score (T. cruzi CYP51; type II difference spectra scored 0-5, second highest rated hit compound cluster): 4; EC50 [2, 4]: 5 µM |
| CCCC/N=C(\S)N1CCn2cccc2C1c1cccnc1 (stereo not shown) [Compound 30] |  | EC50 [2, 5]: 6.33 µM |
| Cc1ccc(C)c(CN2CCCCC2c2cccnc2)c1 (stereo not shown) [Compound 48] | 4 | EC50 [2, 5]: 8.24 µM |
| O=C(CSc1nc(-c2cccs2)cc(C(F)(F)F)n1)NCc1ccncc1 [Compound 150] | 4 |  |
| O=C(c1ccc(Cl)cc1Cl)C(c1cccnc1)C(O)C(Cl)(Cl)Cl (stereo not shown) [Compound 151] | 5 |  |
| Cc1ccc2nc(NC(=O)C3CCN(S(=O)(=O)c4cccnc4)CC3)sc2c1 [Compound 152] | 4 |  |
| Cc1coc(NC(=O)c2sc3nc(-c4ccncc4)cc(C(F)(F)F)c3c2N)n1 [Compound 153] | 4 |  |
| COc1ccc(CNc2nc(-c3cccnc3)nn2S(=O)(=O)c2ccccc2)cc1 [Compound 154] | 4 |  |
| O=C(CSc1nc(-c2ccc(F)cc2)cc(C(F)(F)F)n1)NCc1ccncc1 [Compound 155] | 4 |  |
| O=C(CCCSc1nc(-c2ccco2)cc(C(F)(F)F)n1)NCc1ccncc1 [Compound 156] | 4 |  |
| Cc1c(C(=O)N2CCCCC2c2cccnc2)sc2nc3n(c(=O)c12)CCCCC3 (stereo not shown) [Compound 157] | 4 |  |
| N#CC1=C(N)Oc2nc(SCc3ccc(Cl)cc3)nc(N)c2C1c1cccnc1 (stereo not shown) [Compound 158] | 4 |  |
| CC1=C(C(=O)Nc2ccc(F)cc2F)C(c2cccnc2)C2=C(O)CC(C)(C)CC2=N1 (stereo not shown) [Compound 159] | 4 |  |
| CC1=C(C(=O)Nc2cccnc2)C(c2ccc(Cl)cc2)n2nc(CCCO)nc2N1 (stereo not shown) [Compound 160] | 4 |  |
| Cn1c(=O)c2c(nc(NCc3cccnc3)n2Cc2cccc3ccccc23)n(C)c1=O [Compound 161] | 4 |  |

| Compound | HTS binding score (T. cruzi CYP51; [6]) | other results |
| --- | --- | --- |
| COc1cc(OC)cc(-c2nc3n(n2)C(c2ccncc2)C2=C(O)CC(C)(C)CC2=N3)c1 (stereo not shown) [Compound 162] | 4 |  |
| COc1cc(OC)cc(-c2cc3nc(C)c(CCC(=O)Nc4cccnc4)c(C)n3n2)c1 [Compound 163] | 4 |  |
| CC1Cc2cc(C(=O)C3=C(O)C(=O)N(Cc4cccnc4)C3c3cccs3)ccc2O1 (stereo not shown) [Compound 164] | 4 |  |
| CCOC(=O)c1c(C)n(-c2ccc(C)cc2)c2ccc(OCC(O)Cn3ccnc3)cc12 (stereo not shown) [Compound 165] | 4 |  |
| COc1ccc(NC(=O)C2=C(C)Nc3nc(-c4ccccc4)nn3C2c2ccncc2)cc1 (stereo not shown) [Compound 166] | 5 |  |
| O=C(c1ccncc1)N(c1ccc2oc3c(c2c1)CCCC3)S(=O)(=O)c1cccs1 [Compound 167] | 4 |  |
| Cc1sc(NC(=O)c2ccco2)c(C(c2cccnc2)N2CCN(CCO)CC2)c1C (stereo not shown) [Compound 168] | 4 |  |
| COc1cccc(C2C(C(=O)Nc3cccnc3)=C(C)Nc3nc(-c4cccs4)nn32)c1 (stereo not shown) [Compound 169] | 4 |  |
| COc1ccc(-c2nc3n(n2)C(c2cccs2)C(C(=O)Nc2cccnc2)=C(C)N3)cc1 (stereo not shown) [Compound 170] | 4 |  |
| COc1cc(OC)cc(-c2cc3nc(C)c(CCC(=O)NCc4cccnc4)c(C)n3n2)c1 [Compound 171] | 5 |  |
| Cc1ccc(S(=O)(=O)N(CC(=O)Nc2cccnc2)c2cccc(C(F)(F)F)c2)cc1 [Compound 172] | 4 |  |
| O=C(CN(c1ccc(Cl)cc1Cl)S(=O)(=O)c1ccccc1)NCc1ccncc1 [Compound 173] | 4 |  |
| COc1ccc(-c2noc(CSc3nnc(-c4ccncc4)n3CC(C)C)n2)cc1OC [Compound 174] | 4 |  |
| COC(=O)C1=C(N)Oc2cc(C)n(CCCn3ccnc3)c(=O)c2C1c1ccc(Cl)cc1 (stereo not shown) [Compound 175] | 4 |  |
| CC(C)(C)NC(=O)c1cccc(NC(=O)c2ccc3c(c2)C(=O)N(Cc2cccnc2)C3=O)c1 [Compound 176] | 4 |  |
| COc1cc(NS(=O)(=O)c2ccc(Nc3nc(-c4cccnc4)cs3)cc2)nc(OC)n1 [Compound 177] | 4 |  |
| O=C(NCc1cccnc1)/C(=C\c1cccc(Oc2ccccc2)c1)S(=O)(=O)c1ccccc1 [Compound 178] | 4 |  |
| CC1=C(C(=O)Nc2cccnc2)C(c2cccc(O)c2)n2nc(SCc3ccccc3)nc2N1 (stereo not shown) [Compound 179] | 4 |  |
| Cc1ccc(S(=O)(=O)N(CC(=O)NCc2cccnc2)c2cccc(Br)c2)cc1 [Compound 180] | 4 |  |
| C=CCOc1ccc(C2c3c(-c4ccccc4O)n[nH]c3C(=O)N2Cc2ccncc2)cc1OCC (stereo not shown) [Compound 181] | 5 |  |
| COc1cccc(C2C(C(=O)Nc3cccnc3)=C(C)Nc3nc(-c4cccc(C)c4)nn32)c1OC (stereo not shown) [Compound 182] | 4 |  |
| CC1=C(C(=O)Nc2ccccc2)C(c2cccnc2)C(C#N)=C(SCC(=O)Nc2ccc(F)cc2)N1 (stereo not shown) [Compound 184] | 5 |  |
| COc1cc2c(cc1OC)C(C(=O)N1CCC(Cc3ccccc3)CC1)C(c1cccnc1)N(C)C2=O (stereo not shown) [Compound 185] | 4 |  |
